Data on 27 compounds can be found in patent EP4755881A1 (Wuhan Createrna Science and Technology Co., Ltd., priority 2023, dated 2025).

Each structure is given as a SMILES string.

In one assay the target is hLPAR1 (human lysophosphatidic acid receptor 1, Accession No.: NM_001401.4) (Homo sapiens, UniProt Q92633). The assay can be described thus: cell-based. The following applies: LPAR1 inhibitory activity IC50, Table 1; FLIPR method, CHO-K1 cells overexpressing hLPAR1. How it is done: The antagonist properties of the compounds in the present disclosure were determined using the FLIPR (Fluorometric Imaging Plate Reader) method in CHO-K1 cells (Chinese Hamster Ovary cells K1, ATCC) overexpressing hLPAR1 (human lysophosphatidic acid receptor 1, Accession No.: NM_001401.4).
hLPAR1 (human lysophosphatidic acid receptor 1, Accession No.: NM_001401.4), sequence (Q92633 whole entry): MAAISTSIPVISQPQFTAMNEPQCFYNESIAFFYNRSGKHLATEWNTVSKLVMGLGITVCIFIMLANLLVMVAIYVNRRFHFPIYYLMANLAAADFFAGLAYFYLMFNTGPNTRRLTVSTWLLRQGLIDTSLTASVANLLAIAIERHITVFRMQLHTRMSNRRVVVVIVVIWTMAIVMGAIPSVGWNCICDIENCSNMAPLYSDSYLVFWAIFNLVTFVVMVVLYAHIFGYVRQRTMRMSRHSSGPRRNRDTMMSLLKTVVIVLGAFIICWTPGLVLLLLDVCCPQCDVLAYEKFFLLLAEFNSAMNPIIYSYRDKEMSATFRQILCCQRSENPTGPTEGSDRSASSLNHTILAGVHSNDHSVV
CHO-K1 cells stably expressing hLPAR1 were placed in a cell culture incubator at 37°C with 5% CO2 and cultured in F-12 medium containing 10% FBS (fetal bovine serum, Gibco, 10099-141), 1% penicillin-streptomycin (Gibco, 15140-122), and 0.4 mg/mL Hygromycin B (Gibco, 10687010). 18-24 hours before the FLIPR experiment, the cells were seeded into a 96-well plate at a density of 250,000 cells/mL (25,000 cells/well) and incubated overnight in the cell culture incubator. On the day of the experiment, the medium was removed, and the cells were washed with FLIPR buffer (2.5 mM probenecid (Thermo, P36400), 1.3 mM CaCl2, 3.3 mM Na2CO3, 1 mM MgSO4, 20 mM HEPES (Invitrogen, 15630080), 1× HBSS (Invitrogen, 14065056), 0.1% BSA (BioSharp, 70080030)). 75 µL of […] Fluo-4 AM fluorescent dye (Thermo, F14202) was added to each well and incubated for 1.0 hour at 37°C for dye loading. The 96-well plate was then washed once with buffer, and 50 µL of buffer containing the test compound or vehicle was added to each well, followed by incubation at room temperature for 30 min. The cell plate was then placed into the FLIPR for baseline fluorescence measurement (excitation wavelength at 485 nm, emission wavelength at 525 to 535 nm). Subsequently, 50 µL/well of agonist (final concentration 1 µM oleoyl-L-α-lysophosphatidic acid sodium salt (Sigma, L7260)) or vehicle (ultrapure water) was added, and fluorescence values were measured at 1-second intervals for 2 min. Finally, the output fluorescence counts were analyzed using GraphPad Prism 9.0 software log(inhibitor) vs. response--Variable slope (four parameters) equation to calculate IC50 values.
Table 1: Inhibitory activity data of compounds against LPAR1
For the compound `Cc1nc(-c2nnn(C)c2NC(=O)O[C@H](C)CC(C)(F)F)ccc1C#C[C@@H]1CCC[C@H]1C(=O)O` (single isomer, unassigned) [246-A], half-maximal inhibition (IC50) was put at 0.0183 µM.
With `Cc1nc(-c2nnn(C)c2NC(=O)O[C@H](C)C23CC(C2)C3)ccc1C#CC1(CC(=O)O)CC1` [260-B], the midpoint of inhibition, the IC50, lay at 0.0174 µM.

Staying with this assay, now noted: Table 1; FLIPR method, CHO-K1 cells overexpressing hLPAR1; read-out: LPAR1 inhibitory activity IC50.
As for `Cc1nc(-c2nnn(C)c2NC(=O)O[C@H](C)c2ccccc2)ccc1C#C[C@@H]1CCCC[C@H]1C(=O)O` (mixture of isomers) [027-A, trans-2-((2-methyl-6-(1-methyl-5-((((R)-1-phenylethoxy)carbonyl)amino)-1H-1,2,3-triazol-4-yl)pyridin-3-yl)ethynyl)cyclohexane-1-carboxylic acid], the IC50 is 0.0026 µM.
For `Cc1nc(-c2nnn(C)c2NC(=O)O[C@H](C)c2ccccc2)ccc1C#C[C@@H]1CCCC[C@H]1C(=O)O` (mixture of isomers) [027-B, trans-2-((2-methyl-6-(1-methyl-5-((((R)-1-phenylethoxy)carbonyl)amino)-1H-1,2,3-triazol-4-yl)pyridin-3-yl)ethynyl)cyclohexane-1-carboxylic acid], the half-inhibitory concentration (IC50) stood at 0.0492 µM.
Same read-out and setting: the result for `Cc1nc(-c2nnn(C)c2NC(=O)O[C@H](C)c2ccccc2F)ccc1C#C[C@@H]1CCCC[C@H]1C(=O)O` (mixture of isomers) [028-A, trans-2-((6-(5-((((R)-1-(2-fluorophenyl)ethoxy)carbonyl)amino)-1-methyl-1H-1,2,3-triazol-4-yl)-2-methylpyridin-3-yl)ethynyl)cyclohexane-1-carboxylic acid] reads 0.0176 µM; that for `Cc1nc(-c2nnn(C)c2NC(=O)O[C@H](C)c2ccccc2F)ccc1C#C[C@@H]1CCCC[C@H]1C(=O)O` (mixture of isomers) [028-B, trans-2-((6-(5-((((R)-1-(2-fluorophenyl)ethoxy)carbonyl)amino)-1-methyl-1H-1,2,3-triazol-4-yl)-2-methylpyridin-3-yl)ethynyl)cyclohexane-1-carboxylic acid], 0.0604 µM; that for `Cc1nc(-c2nnn(C)c2NC(=O)O[C@H](C)c2ccccc2Cl)ccc1C#C[C@@H]1CCCC[C@H]1C(=O)O` (mixture of isomers) [031-A, trans-2-((6-(5-((((R)-1-(2-chlorophenyl)ethoxy)carbonyl)amino)-1-methyl-1H-1,2,3-triazol-4-yl)-2-methylpyridin-3-yl)ethynyl)cyclohexane-1-carboxylic acid], 0.0006 µM.
The same measure, in the same setting: the result for `Cc1nc(-c2nnn(C)c2NC(=O)O[C@H](C)c2ccccc2Cl)ccc1C#C[C@@H]1CCCC[C@H]1C(=O)O` (mixture of isomers) [031-B, trans-2-((6-(5-((((R)-1-(2-chlorophenyl)ethoxy)carbonyl)amino)-1-methyl-1H-1,2,3-triazol-4-yl)-2-methylpyridin-3-yl)ethynyl)cyclohexane-1-carboxylic acid] reads 0.0002 µM.
On the same count and under the same terms, the result for `CCC(F)(F)[C@@H](C)OC(=O)Nc1c(-c2ccc(C#C[C@@H]3CC[C@H]3C(=O)O)c(C)n2)nnn1C` (mixture of isomers) [212-A, trans-2-((6-(5-(((((R)-3,3-difluoropentan-2-yl)oxy)carbonyl)amino)-1-methyl-1H-1,2,3-triazol-4-yl)-2-methylpyridin-3-yl)ethynyl)cyclobutane-1-carboxylic acid] reads 0.0421 µM.
Consider `Cc1nc(-c2nnn(C)c2NC(=O)O[C@H](C)CC(C)(F)F)ccc1C#C[C@@H]1CC[C@H]1C(=O)O` (mixture of isomers) [213-A, trans-2-((6-(5-(((((R)-4,4-difluoropentan-2-yl)oxy)carbonyl)amino)-1-methyl-1H-1,2,3-triazol-4-yl)-2-methylpyridin-3-yl)ethynyl)cyclobutane-1-carboxylic acid], for which the IC50 turned out to be 0.0482 µM.
For `CCC(F)(F)[C@@H](C)OC(=O)Nc1c(-c2ccc(C#C[C@@H]3CCC[C@H]3C(=O)O)c(C)n2)nnn1C` (mixture of isomers) [219-A, trans-2-((6-(5-(((((R)-3,3-difluoropentan-2-yl)oxy)carbonyl)amino)-1-methyl-1H-1,2,3-triazol-4-yl)-2-methylpyridin-3-yl)ethynyl)cyclopentane-1-carboxylic acid], the IC50 stood at 0.0033 µM.
Still for that read-out and setting: the result for `Cc1nc(-c2nnn(C)c2NC(=O)O[C@H](C)CC(C)(C)F)ccc1C#C[C@@H]1CCC[C@H]1C(=O)O` (mixture of isomers) [244-A, trans-2-((6-(5-(((((R)-4-fluoro-4-methylpentan-2-yl)oxy)carbonyl)amino)-1-methyl-1H-1,2,3-triazol-4-yl)-2-methylpyridin-3-yl)ethynyl)cyclopentane-1-carboxylic acid] reads 0.0198 µM; that for `Cc1nc(-c2nnn(C)c2NC(=O)O[C@H](C)CC2CC2)ccc1C#C[C@@H]1CC(F)(F)C[C@H]1C(=O)O` (mixture of isomers) [compound 205, trans-2-((6-(5-(((((R)-1-cyclopropylpropan-2-yl)oxy)carbonyl)amino)-1-methyl-1H-1,2,3-triazol-4-yl)-2-methylpyridin-3-yl)ethynyl)-4,4-difluorocyclopentane-1-carboxylic acid], 0.0031 µM; that for `CCCCN(C)C(=O)OCc1c(-c2ccc(C#C[C@@H]3CC(F)(F)C[C@H]3C(=O)O)c(C)n2)nnn1C` (racemic) [compound 252], 0.0302 µM.
The same measure, in the same setting: the result for `Cc1nc(-c2nnn(C)c2COC(=O)N(C)CC2CCC2)ccc1C#CC1CC(F)(F)CC1C(=O)O` (racemic) [compound 362] reads 0.0204 µM; that for `Cc1nc(-c2nnn(C)c2NC(=O)OC(C)CC2CC2)ccc1C#CC1CCC1C(=O)O` (single isomer, unassigned) [248-B], 0.0191 µM.
Same read-out and setting: the result for `Cc1nc(-c2nnn(C)c2NC(=O)OC(C)CC(C)(C)F)ccc1C#CC1CCC1C(=O)O` (single isomer, unassigned) [306-A] reads 0.0506 µM.
Consider `Cc1nc(-c2nnn(C)c2NC(=O)OC(C)CC(C)(C)F)ccc1C#CC1CCC1C(=O)O` (single isomer, unassigned) [306-B], for which the half-maximal inhibitory concentration (IC50) was found to be 0.0536 µM.
Still for that read-out and setting: the result for `CCC[C@@H](C)OC(=O)Nc1c(-c2ccc(C#CC3(CC(=O)O)CC3)c(C)n2)nnn1C` [010-A] reads 0.0459 µM.
Still for that read-out and setting: the result for `Cc1nc(-c2nnn(C)c2NC(=O)OC(C)C2CCC2)ccc1C#CC1(CC(=O)O)CC1` (stereo not drawn) [032-A, 2-(1-((6-(5-(((1-cyclobutylethoxy)carbonyl)amino)-1-methyl-1H-1,2,3-triazol-4-yl)-2-methylpyridin-3-yl)ethynyl)cyclopropyl)acetic acid] reads 0.0006 µM.
The same measure, in the same setting: the result for `Cc1nc(-c2nnn(C)c2NC(=O)OC(C)C2CCCC2)ccc1C#CC1(CC(=O)O)CC1` (stereo not drawn) [092', 2-(1-((6-(5-(((1-cyclopentylethoxy)carbonyl)amino)-1-methyl-1H-1,2,3-triazol-4-yl)-2-methylpyridin-3-yl)ethynyl)cyclopropyl)acetic acid] reads 0.0187 µM; that for `CCC(F)(F)[C@@H](C)OC(=O)Nc1c(-c2ccc(C#CC3(CC(=O)O)CC3)c(C)n2)nnn1C` [207', (R)-2-(1-((6-(5-((((3,3-difluoropentan-2-yl)oxy)carbonyl)amino)-1-methyl-1H-1,2,3-triazol-4-yl)-2-methylpyridin-3-yl)ethynyl)cyclopropyl)acetic acid], 0.0202 µM.
For `Cc1nc(-c2nnn(C)c2NC(=O)OC(C)C2CCC2)ccc1C#CC1CC(F)(F)CC1C(=O)O` (stereo not drawn) [242-A], the half-inhibitory concentration (IC50) is 0.007 µM.
For `CCCCN(C)C(=O)OCc1c(-c2ccc(C#CC3(CC(=O)O)CC3)c(C)n2)nnn1C` [compound 004, 2-(1-((6-(5-(((butyl(methyl)carbamoyl)oxy)methyl)-1-methyl-1H-1,2,3-triazol-4-yl)-2-methylpyridin-3-yl)ethynyl)cyclopropyl)acetic acid], the IC50 amounted to 0.0663 µM.
Still for that read-out and setting: the result for `Cc1nc(-c2cnn(C)c2NC(=O)O[C@H](C)c2ccccc2Cl)ccc1C#CC1(CC(=O)O)CC1` [compound 005, (R)-2-(1-((6-(5-(((1-(2-chlorophenyl)ethoxy)carbonyl)amino)-1-methyl-1H-pyrazol-4-yl)-2-methylpyridin-3-yl)ethynyl)cyclopropyl)acetic acid] reads 0.0226 µM; that for `Cc1nc(-n2nnc(C)c2NC(=O)O[C@H](C)c2ccccc2Cl)ccc1C#CC1(CC(=O)O)CC1` [compound 006, (R)-2-(1-((6-(5-(((1-(2-chlorophenyl)ethoxy)carbonyl)amino)-4-methyl-1H-1,2,3-triazol-1-yl)-2-methylpyridin-3-yl)ethynyl)cyclopropyl)acetic acid], 0.042 µM.

Staying with this assay, now noted: read-out: LPAR1 inhibitory activity IC50; Table 1; FLIPR method, CHO-K1 cells overexpressing hLPAR1.
Consider `Cc1nc(-c2nnn(C)c2NC(=O)OC(C)CCCF)ccc1C#CC1(CC(=O)O)CC1` (racemic) [compound 280], for which the IC50 is 0.0757 µM.

For orientation: IC50 means the concentration at which inhibition is half-maximal.
